From patent US12063902B2, “Method of regenerating cannabis” (The State of Israel, Ministry of Agriculture & Rural …, priority 2018, dated 2024)

Key:
[1] = test system: Cannabis leaf segment explants; assay: Somatic embryogenesis in liquid culture; assay type: cell-based, Cannabis sativa; conditions: liquid Gamborg B5 medium
Method: Leaf segments from tissue culture grown on the solid medium (1.5 cm diameter and 4-5 cm long) of two Cannabis cultivars (108 and 201) were used. Innermost leaf whorls were cut obliquely (0.5-1.0 cm), injured with sharp scalpel blade in order to achieve callus initiation. Leaf segment, were used as explant for inoculation on MS medium (Murashige and Skoog 1962) supplemented with 2,4-D (4.0 mg/L) and kinetin [Kin] (0.5 mg/L). After 2-3 weeks the cultures were incubated at 25±2 C at 70-80% humidity in dark in liquid Gamborg B5 medium supplemented with 6% sucrose and different plant hormones (Table 1). The media was refreshed every three weeks.
Leaf segments from tissue culture from two different genotypes (108 and 201) have been used as primary explants. The explants were chopped to small pieces (as less as 0.5 mm) and cultivated in liquid Gamborg B5 medium supplemented with 6% sucrose and different plant hormones (Table 1). The media were refreshed every three weeks.
The initiated suspension cultures along with embryos in globular stage (FIGS. 12A-12B) were sub-cultured in the same medium for three weeks. Part of the cultures was transferred to B5 Gamborg media, supplemented with different hormones/chemicals (Table 2) to provoke embryo elongation and further development. The cultures were transferred to fresh media every three weeks.

Cannabis shoots = assay: Rooting (root induction) of shoots; assay type: cell-based, Cannabis sativa L.
Method: Shoot was cultivated individually in a tube with root induction (RI) medium composed of half strength MS medium (½MS) supplemented with 100 mg/l myo-inositol, 1 mg/l thiamine-HCl, 90 mg/l phloroglucinol, 2% sucrose (w/v), 0.25% activated charcoal (AC), with or without IBA (at different concentrations (0, 1, 2 mg/l) and 0.8% agar. Soil mixture was moistened by soaking the rooting cylinders in liquid RI medium supplemented with either 0, 1, or 2 mg/l IBA. Each treatment consisted of 10 shoots and results were scored after 4 weeks. Each experiment was repeated three times.
To obtain root induction, different concentrations of IBA were examined. The shoots were placed in a tube containing rooting medium containing 0, 1, or 2 mg/l IBA. Using this method with 2 mg/l IBA, about 85% of the shoots formed roots. However, only low percentage of these plants successfully acclimatized under greenhouse conditions. According to the second approach, shoots were cultured directly in rooting cylinders. After 4 weeks, 100% root formation was achieved, independently of the concentration of auxin used (FIGS. 5A-5C). These plants had better hardening and underwent easier acclimatization in greenhouse conditions. In-vitro clonal propagation, rooting and acclimatized plantlet production was established for 10 different Cannabis cultivars. […]

Cannabis explants = assay: Shoot regeneration in tissue culture with "regeneration premium treatment"; assay type: cell-based, Cannabis sativa
Method: Regeneration from Cannabis plant material using tissue culture, germinated leaves, cotyledons and hypocotyls were used for regeneration. The plants were placed on a petri dish containing 20 ml regeneration media using premium treatment with cuticle nicking enzymes: MS salt mixture, supplemented with 100 mg/l myo-inositol, 1 mg/l thiamine-HCl, 2% sucrose (w/v) at pH 5.7) with and without 5 ml pectic enzymes reaction mixture (0.25 ml 10% enzyme fungal mix of pectin and cutinase 0.25 ml 200 mM Tris-HCl).
Three youngest expanding leaves isolated from 3 to 4 weeks old plants were with and placed on regeneration medium with cuticle nicking enzymes (Murashige and Skoog (MS) medium salt mixture, containing 0.05-5.0 μM thidiazuron, supplemented with 100 mg/l myo-inositol, 1 mg/l thiamine-HCl, 2% sucrose (w/v) at pH 5.7, with 5 ml pectic enzymes reaction mixture (0.25 ml 10% cuticle nicking enzyme in 0.25 ml 200 mM Tris-HCl). The cultures were kept for 7 days in low light intensity (2.5 mmol/m2 s) followed by exposure to high light intensity (40 mmol/m2 s) at 25° C., in a 16/8 h photoperiod. Leaf explants were examined after 14 and 21 days and the percentage of explant producing shoots were calculated. […]

CC(C)=CCNc1ncnc2nc[nH]c12 [2iP]
amount of somatic embryos generated ([1]; gyratory shaker at dark): Low amounts of embryos

O=C(Nc1ccccc1)Nc1ccnc(Cl)c1 [CPPU]
somatic embryo initiation ([1]; 10 mg/l, 6% sucrose): essential for the embryo initiation

O=C(O)CCCc1c[nH]c2ccccc12 [IBA, indol-3-butyric acid]
root formation (Cannabis shoots; shoots cultured directly in rooting cylinders, after 4 weeks, independently of the concentration of auxin (0, 1, 2 mg/l IBA)): 100% | shoots formed roots (Cannabis shoots; tube containing rooting medium, 2 mg/l IBA): about 85%

C=C1C[C@]23C[C@@]1(O)CC[C@H]2[C@@]12C=C[C@H](O)[C@@](C)(C(=O)O1)[C@H]2[C@@H]3C(=O)O [gibberellic acid]
shoot growth (Cannabis explants; 7.0 μM gibberellic acid added to medium containing 0.5 μM thidiazuron): slightly increased shoot growth

O=C(Nc1ccccc1)Nc1cnns1 [thidiazuron]
quality and quantity of regenerates (Cannabis explants; 0.5 μM thidiazuron, media treatment with cuticle nicking enzymes): better
